# Experimental data from PubChem BioAssay AID2060894 (Molecular Pharmacology Branch, DTP, NCI, 2025).
# System: K12877-001-R-J1-PDC complex spheroid viability
# Assay: Anticancer human tumor K12877-001-R-J1-PDC patient-derived lung adenocarcinoma cell line growth inhibition [RAS]
# Details: for IC50: curve of first compound; for viability, T/C: stronger effect = lower value
# How it was run: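 Multi-cell-type spheroids: tumor cells plus HUVEC endothelial cells and mesenchymal stem cells. RAS-pathway inhibitors were combined with targeted agents, each dosed in half-log steps down from clinical Cmax, or from 10 microM when Cmax was unknown.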
# [1] = second compound 0.000949 µM, first compound 0.0316 µM
# [2] = second compound 0.000949 µM, first compound 0.1 µM
# [3] = second compound 0.000949 µM, first compound 0.316 µM
# [4] = second compound 0.000949 µM, first compound 1 µM
# [5] = second compound 0.000949 µM, first compound 3.16 µM
# [6] = second compound 0.000949 µM, first compound 10 µM
# [7] = second compound 0.003 µM, first compound 0.0316 µM
# [8] = second compound 0.003 µM, first compound 0.1 µM
# [9] = second compound 0.003 µM, first compound 0.316 µM
# [10] = second compound 0.003 µM, first compound 1 µM
# [11] = second compound 0.003 µM, first compound 3.16 µM
# [12] = second compound 0.003 µM, first compound 10 µM
# [13] = second compound 0.00949 µM, first compound 0.0316 µM
# [14] = second compound 0.00949 µM, first compound 0.1 µM
# [15] = second compound 0.00949 µM, first compound 0.316 µM
# [16] = second compound 0.00949 µM, first compound 1 µM
# [17] = second compound 0.00949 µM, first compound 3.16 µM
# [18] = second compound 0.00949 µM, first compound 10 µM
# [19] = second compound 0.03 µM, first compound 0.0316 µM
# [20] = second compound 0.03 µM, first compound 0.1 µM
# [21] = second compound 0.03 µM, first compound 0.316 µM
# [22] = second compound 0.03 µM, first compound 1 µM
# [23] = second compound 0.03 µM, first compound 3.16 µM
# [24] = second compound 0.03 µM, first compound 10 µM
# [25] = second compound 0.0949 µM, first compound 0.0316 µM
# [26] = second compound 0.0949 µM, first compound 0.1 µM
# [27] = second compound 0.0949 µM, first compound 0.316 µM
# [28] = second compound 0.0949 µM, first compound 1 µM
# [29] = second compound 0.0949 µM, first compound 3.16 µM
# [30] = second compound 0.0949 µM, first compound 10 µM
# [31] = second compound 0.3 µM, first compound 0.0316 µM
# [32] = second compound 0.3 µM, first compound 0.1 µM
# [33] = second compound 0.3 µM, first compound 0.316 µM
# [34] = second compound 0.3 µM, first compound 1 µM
# [35] = second compound 0.3 µM, first compound 3.16 µM
# [36] = second compound 0.3 µM, first compound 10 µM
# 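Also: spheroids exposed to agents for one week before readout.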
# 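For viability, T/C in this document: tumour cells co-cultured with HUVEC and mesenchymal stem cells in spheroids.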
smiles,measurement,setting,value
Cc1nc(N2CCC3(CC2)COC(C)C3N)c(CO)nc1Sc1ccnc(N)c1Cl (stereo unspecified) + CCn1c(-c2cc(N3CCN(C)CC3)cnc2C(C)OC)c2c3cc(ccc31)-c1csc(n1)CC(NC(=O)C1CC1C)C(=O)N1CCCC(N1)C(=O)OCC(C)(C)C2,IC50,second compound 0.000949 µM,> 10000 nM
same,IC50,second compound 0.003 µM,> 10000 nM
same,IC50,second compound 0.00949 µM,> 10000 nM
same,IC50,second compound 0.03 µM,> 10000 nM
same,IC50,second compound 0.0949 µM,> 10000 nM
same,IC50,second compound 0.3 µM,8660 nM
same,"viability, T/C",[1],77.8%
same,"viability, T/C",[2],69.4%
same,"viability, T/C",[3],71.7%
same,"viability, T/C",[4],59%
same,"viability, T/C",[5],66.7%
same,"viability, T/C",[6],58.7%
same,"viability, T/C",[7],63.6%
same,"viability, T/C",[8],57.7%
same,"viability, T/C",[9],62.1%
same,"viability, T/C",[10],63.4%
same,"viability, T/C",[11],69.3%
same,"viability, T/C",[12],71.3%
same,"viability, T/C",[13],72.2%
same,"viability, T/C",[14],70.8%
same,"viability, T/C",[15],79.8%
same,"viability, T/C",[16],73.4%
same,"viability, T/C",[17],71.8%
same,"viability, T/C",[18],56.4%
same,"viability, T/C",[19],97.1%
same,"viability, T/C",[20],93.7%
same,"viability, T/C",[21],93.9%
same,"viability, T/C",[22],81%
same,"viability, T/C",[23],75.9%
same,"viability, T/C",[24],59.5%
same,"viability, T/C",[25],98.8%
same,"viability, T/C",[26],94%
same,"viability, T/C",[27],94.5%
same,"viability, T/C",[28],76.2%
same,"viability, T/C",[29],67.2%
same,"viability, T/C",[30],50.2%
same,"viability, T/C",[31],97.5%
same,"viability, T/C",[32],86.1%
same,"viability, T/C",[33],81.5%
same,"viability, T/C",[34],71.2%
same,"viability, T/C",[35],65.6%
same,"viability, T/C",[36],45.6%
NC1c2ccccc2OC12CCN(c1cnc3c(N4CCCc5ncccc54)n[nH]c3n1)CC2 (stereo unspecified) + CCn1c(-c2cc(N3CCN(C)CC3)cnc2C(C)OC)c2c3cc(ccc31)-c1csc(n1)CC(NC(=O)C1CC1C)C(=O)N1CCCC(N1)C(=O)OCC(C)(C)C2,IC50,second compound 0.000949 µM,> 10000 nM
same,IC50,second compound 0.003 µM,7630 nM
same,IC50,second compound 0.00949 µM,4860 nM
same,IC50,second compound 0.03 µM,3490 nM
same,IC50,second compound 0.0949 µM,1330 nM
same,IC50,second compound 0.3 µM,937 nM
same,"viability, T/C",[1],64.9%
same,"viability, T/C",[2],57.4%
same,"viability, T/C",[3],58%
same,"viability, T/C",[4],83.2%
same,"viability, T/C",[5],61.3%
same,"viability, T/C",[6],46.9%
same,"viability, T/C",[7],55.2%
same,"viability, T/C",[8],72.1%
same,"viability, T/C",[9],84.6%
same,"viability, T/C",[10],82.2%
same,"viability, T/C",[11],62.9%
same,"viability, T/C",[12],46%
same,"viability, T/C",[13],84.1%
same,"viability, T/C",[14],80%
same,"viability, T/C",[15],74.1%
same,"viability, T/C",[16],64.9%
same,"viability, T/C",[17],59.5%
same,"viability, T/C",[18],38.6%
same,"viability, T/C",[19],102%
same,"viability, T/C",[20],97.1%
same,"viability, T/C",[21],72.4%
same,"viability, T/C",[22],64%
same,"viability, T/C",[23],56.9%
same,"viability, T/C",[24],34.2%
same,"viability, T/C",[25],91.9%
same,"viability, T/C",[26],77.6%
same,"viability, T/C",[27],64.9%
same,"viability, T/C",[28],52.7%
same,"viability, T/C",[29],41.9%
same,"viability, T/C",[30],33%
same,"viability, T/C",[31],77.4%
same,"viability, T/C",[32],67.7%
same,"viability, T/C",[33],60%
same,"viability, T/C",[34],49.3%
same,"viability, T/C",[35],39.1%
same,"viability, T/C",[36],26%
Nc1ccn(C2OC(CO)C(O)C2(F)F)c(=O)n1 (stereo unspecified) + CCn1c(-c2cc(N3CCN(C)CC3)cnc2C(C)OC)c2c3cc(ccc31)-c1csc(n1)CC(NC(=O)C1CC1C)C(=O)N1CCCC(N1)C(=O)OCC(C)(C)C2,IC50,second compound 0.000949 µM,13.9 nM
same,IC50,second compound 0.003 µM,13.4 nM
same,IC50,second compound 0.00949 µM,11.6 nM
same,IC50,second compound 0.03 µM,17.5 nM
same,IC50,second compound 0.0949 µM,16.8 nM
same,IC50,second compound 0.3 µM,17.4 nM
same,"viability, T/C","second compound 0.000949 µM, first compound 0.00316 µM",76.3%
same,"viability, T/C","second compound 0.000949 µM, first compound 0.01 µM",66.7%
same,"viability, T/C",[1],8.22%
same,"viability, T/C",[2],4.35%
same,"viability, T/C",[3],4.92%
same,"viability, T/C",[4],5.37%
same,"viability, T/C","second compound 0.003 µM, first compound 0.00316 µM",62.2%
same,"viability, T/C","second compound 0.003 µM, first compound 0.01 µM",64%
same,"viability, T/C",[7],10.9%
same,"viability, T/C",[8],4.55%
same,"viability, T/C",[9],4.11%
same,"viability, T/C",[10],4.17%
same,"viability, T/C","second compound 0.00949 µM, first compound 0.00316 µM",59.7%
same,"viability, T/C","second compound 0.00949 µM, first compound 0.01 µM",55.8%
same,"viability, T/C",[13],9.86%
same,"viability, T/C",[14],3.95%
same,"viability, T/C",[15],4.84%
same,"viability, T/C",[16],4.74%
same,"viability, T/C","second compound 0.03 µM, first compound 0.00316 µM",93.2%
same,"viability, T/C","second compound 0.03 µM, first compound 0.01 µM",86.8%
same,"viability, T/C",[19],10.9%
same,"viability, T/C",[20],4.44%
same,"viability, T/C",[21],4.77%
same,"viability, T/C",[22],3.54%
same,"viability, T/C","second compound 0.0949 µM, first compound 0.00316 µM",103%
same,"viability, T/C","second compound 0.0949 µM, first compound 0.01 µM",80.9%
same,"viability, T/C",[25],12.4%
same,"viability, T/C",[26],3.68%
same,"viability, T/C",[27],3.46%
same,"viability, T/C",[28],4.36%
same,"viability, T/C","second compound 0.3 µM, first compound 0.00316 µM",84.6%
same,"viability, T/C","second compound 0.3 µM, first compound 0.01 µM",80.6%
same,"viability, T/C",[31],17%
same,"viability, T/C",[32],2.67%
same,"viability, T/C",[33],3.61%
same,"viability, T/C",[34],2.74%
